Experimental data published in patent US20250051805A1, “METHODS” (Commonwealth Scientific and Industrial Research Organisation, priority 2021, published 2025).

Tests used:
[1] = tested on: E. coli transformed to express VHPO; assay: Bromoform biosynthesis in growing E. coli cultures expressing VHPO with inhibitors or oleic acid; assay type: cell-based, Escherichia coli; conditions: for production of bromoform in culture: 0.1% oleic acid, 1% tergitol, with amino-triazole to inhibit catalase; for bromoform observed in culture: 0.5 g/L tannic acid together with 10 mM 3-amino-1,2,4-triazole, 18 hours
Procedure: VHPO was expressed in E. coli isolate BL21 (DE3) as described above. Alongside IPTG (0.2 mM) the culture was also supplemented with 50 mM KBr, 1 mM Na3VO4, 10 mM 3-amino,1,2,4-triazole, and 0.5 g/L tannic acid or 0.1% oleic acid (emulsified with 1% tergitol (Merck, Ma USA)). Typically, 10 mL LB cultures were grown in 50 mL tubes with the lids closed. Vented tubes led to the loss of bromoform by evaporation. Cells were harvested by centrifugation and resuspended in 1 mL of brine (6 M NaCl), transferred into 20 mL headspace GC vials and sealed with a magnetic screw cap before analysis by SPME-GC-MS.
This strategy utilizes tannic acid to inhibit FabG to promote the accumulation acetoacyl-acyl-carrier-proteins (Wu et al., 2010), alongside 3-amino-1,2,4-triazol to inhibit catalase and promote the accumulation of H2O2(Meir and Yagil, 1985). FabG is β-ketoacyl-ACP reductase [EC 1.1.1.100], an enzyme that catalyses the reduction of acetoacyl-acyl carrier proteins during fatty acid synthesis. Catalase consumes the intracellular H2O2 which is required for VHPO activity. Both inhibitors were added to cultures E. coli transformed to express VHPO upon induction with IPTG. The VHPO gene from the marine cyanobacterium Acaryochloris marina MBIC110174 was synthesized by Epoch Life Science Inc. (Tx, USA) using the published gene sequence (GenBank Accession CP000828-nucleotides 5020736-5018817). This gene sequence was codon optimized for E. coli expression and cloned into expression vector pACYCDuet1 under the regulatory control of a LacI repressor and T7 promoter and terminator sequences. Cell growth was allowed to continue for 18 hours in the presence of these molecules with the addition of KBr and Na3VO4, before harvesting the cells by centrifugation and analysis of bromoform levels.
Alongside IPTG (0.2 mM) the culture was also supplemented with 50 mM KBr, 1 mM Na3VO4, 10 mM 3-amino,1,2,4-triazole, and 0.5 g/L tannic acid or 0.1% oleic acid (emulsified with 1% tergitol (Merck, Ma USA)). Typically, 10 mL LB cultures were grown in 50 mL tubes with the lids closed. Vented tubes led to the loss of bromoform by evaporation. Cells were harvested by centrifugation and resuspended in 1 mL of brine (6 M NaCl), transferred into 20 mL headspace GC vials and sealed with a magnetic screw cap before analysis by SPME-GC-MS.

[2] = tested on: S. cerevisiae BY4741 transformed with pRS-ePST1-AmVHPO; assay: Bromoform synthesis by S. cerevisiae with peroxisome-targeted VHPO in SDUGGO media; assay type: cell-based, Saccharomyces cerevisiae; conditions: 0.1% oleic acid together with 3-amino-1,2,4-triazol
Procedure: 10 mL seed cultures of were inoculated with a single colony of BY4741 transformed with pRS-ePST1-AmVHPO in SD and grown at 220 rpm, 30° C. overnight. These were used to inoculate 10 mL cultures of SDUGGO media (uracil (0.67% yeast nitrogenous base without amino acids, 0.192% Merck yeast synthetic dropout medium supplement without uracil, 10% glycerol, 0.1% glucose, 100 mM KBr, 1 mM Na3VO4, 100 mM MOPS (pH 6.5), 0.1% oleic acid emulsified in 1% tergitol) at an initial OD600 of 2.0, and incubated for a further 24 hours at 220 rpm, 30° C. As with E. coli, samples were grown in 50 mL tubes with the lids closed to minimize the loss of bromoform by evaporation. Cells were harvested by centrifugation and resuspended in 1 mL of brine (6 M NaCl), transferred into 20 mL headspace GC vials and sealed with a magnetic screw cap before analysis by SPME-GC-MS.
With this plasmid in hand, the media was adapted to allow for maximum flux through beta-oxidation, incorporating both oleic acid to induce β-oxidation and glycerol as a non-repressing carbon source. A small amount of glucose (0.1%) was also included to stimulate initial cell growth, alongside Mops buffer (pH 6.5), which improved bromoform production compared with unbuffered cultures. KBr and Na3VO4 were also added to allow for VHPO activity.

[3] = cited from earlier work
[4] = tested on: E. coli expressing the A. marina VHPO gene; assay: Bromoform production by E. coli expressing A. marina VHPO with 1,3-dicarbonyl substrates of Table 4; assay type: cell-based, Escherichia coli; conditions: 1 mM substrate, 100 mM H2O2, 24 hours room temperature; FIG. 8
Procedure: A sample with no additional substrate was also run as a control experiment. Samples (1 mL) were incubated in sealed tubes at room temperature for 24 hours. 10 μL samples from each were withdrawn and added to 1 mL brine to improve phase separation16 and placed in a 20 mL GC vial, which were then sealed with magnetic screw caps (Agilent). The head space of each sample was analyzed by solid phase microextraction (SPME) GC-MS.
To test for bromoform production E. coli cells were resuspended in 1 mL water/100 mL culture volume and 20% v/v of this cell suspension was added to a solution of substrate listed in Table 4 in addition to 100 mM HEPES (pH 7.4), 20 mM KBr, 1 mM Na3VO4, and 100 mM H2O2. Samples (1 mL) were incubated in sealed tubes at room temperature for 24 hours. 10 μL samples from each were withdrawn and added to 1 mL brine in a GC vial before sealing. The head space of each sample was analysed by solid phase microextraction (SPME) GC/MS as above. Bromoform was quantified by comparison with a standard curve prepared from authentic samples of bromoform as described above.

[5] = tested on: E. coli expressing the A. marina VHPO gene; assay: Time course of bromoform production from acetylacetone by the E. coli cell suspension with repeated H2O2 addition; assay type: cell-based, Escherichia coli
Procedure: It was hypothesized that with sufficient hydrogen peroxide supply full conversion to bromoform could be achieved. To this end an additional reaction was set up with 10% E. coli cell suspension 100 mM HEPES (pH 7.4), 100 mM KBr, 1 mM Na3VO4, and 400 mM H2O2 added to initiate the reaction, then again after 2 and 4 hours. 10 μL of this reaction was sampled at 0, 20, 60, 120, 180, 240, and 360 minutes, the reaction was stopped by addition of 1 mL of ice cold brine and samples were stored in sealed GC vials at −20° C. before analysis by SPME-GC/MS as above. Bromoform was quantified by comparison with a standard curve prepared from authentic samples of bromoform, added to control samples (identical to the reaction, except containing no bromide), to account for matrix effects. The time course and standard curve is shown below in FIG. 7.

[6] = tested on: E. coli expressing the A. marina VHPO gene; assay: Bromoform production by E. coli cells expressing A. marina VHPO with Table 3 substrates (SPME-GC/MS); assay type: cell-based, Escherichia coli; conditions: 1 mM substrate, 50 mM H2O2, 24 hours room temperature; compared with the other samples of Table 3
Procedure: Transformed E. coli were then grown in LB with 30 μg/mL chloramphenicol at 37° C. 220 rpm, until OD600 ˜0.6. IPTG 0.2 mM was then added and the cultures transferred to 28° C. with shaking at 220 rpm for a further 18 hours. Cells were harvested by centrifugation and kept at −20° C. before further use.
To test for bromoform production E. coli cells were resuspended in 1 mL water/100 mL culture volume and 20% v/v of this cell suspension was added to a solution of substrate listed below in Table 3, 100 mM HEPES (pH 7.4), 20 mM KBr, 1 mM Na3VO4, and 50 mM H2O2. Samples (100 μL) were incubated in sealed GC vials at room temperature for 24 hours. The head space of each sample was analysed by solid phase microextraction (SPME) GC/MS using a 7890A series gas chromatograph, a 5975C inert XL MSD mass selective detector and a MPS2 Gerstel multipurpose autosampler. Bromoform was identified in samples by comparison of the retention time with an authentic standard (Sigma, USA) and by mass spectral matching using the NIST/EPA/NIH Mass Spectral Library (version 2014). Relative bromoform quantities were measured by integration of the m/z=250 signal in extracted ion chromatograms generated using Agilent Mass Hunter software (version 10.0).

[7] = molecular target: T1, VHPO extracted from Corallina officinalis (Corallina officinalis, UniProt Q8LLW7); assay: Bromoform synthesis by extracted enzyme; assay type: biochemical; conditions: 0.1 U VHPO, 10 mM substrate, 50 mM KBr, 50 mM H2O2
T1 construct: VHPO extracted from Corallina officinalis (Sigma); purchased Sigma; host or cells: extracted from the red alga Corallina officinalis (natural source)
T1 sequence (Q8LLW7 1-598): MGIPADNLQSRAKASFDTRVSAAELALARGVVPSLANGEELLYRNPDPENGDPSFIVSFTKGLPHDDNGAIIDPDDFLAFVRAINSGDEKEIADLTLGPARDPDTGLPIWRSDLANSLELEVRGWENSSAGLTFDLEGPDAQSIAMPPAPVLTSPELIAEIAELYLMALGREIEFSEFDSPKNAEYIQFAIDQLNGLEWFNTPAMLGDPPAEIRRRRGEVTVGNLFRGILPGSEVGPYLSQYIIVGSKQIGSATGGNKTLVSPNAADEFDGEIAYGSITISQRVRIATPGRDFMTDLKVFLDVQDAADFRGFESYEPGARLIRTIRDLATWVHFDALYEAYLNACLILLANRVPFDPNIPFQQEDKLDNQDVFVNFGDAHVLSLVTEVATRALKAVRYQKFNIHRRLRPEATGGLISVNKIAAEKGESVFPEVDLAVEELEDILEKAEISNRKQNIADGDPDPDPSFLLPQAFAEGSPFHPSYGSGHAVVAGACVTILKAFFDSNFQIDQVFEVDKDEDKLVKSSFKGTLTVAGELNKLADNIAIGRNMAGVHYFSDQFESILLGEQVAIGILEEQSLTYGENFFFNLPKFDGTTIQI
Procedure: The whole reaction (100 μL) was transferred to a GC-Headspace vial and left at room temperature until analysis by SPME-GCMS as before. Relative bromoform levels were assessed as described above.

With `CCCCCCCC/C=C\CCCCCCCC(=O)O` [oleic acid] the “production of bromoform in culture” value [1] was “trace amounts” and the “bromoform detected in the cell pellet” value [2] was “only when both oleic acid and 3-amino-1,2,4-triazol were added”.
For `Nc1nc[nH]n1` [3-amino-1,2,4-triazol], the “production of bromoform in culture” value [1] was “trace amounts”, the “bromoform observed in culture” value [1] was “only observed when both inhibitors were added” and the “bromoform detected in the cell pellet” value [2] was “only when both oleic acid and 3-amino-1,2,4-triazol were added”.
For `CCOC(=O)CC(C)=O` [ethyl acetoacetate], the “pKa (H2O solvent reference)” value [3] is given as 10.7 (Brodwell, personal and the bromoform production [4] is given as “increase in bromoform production”.
In the case of `CC(=O)CC(C)=O` [acetylacetone], the “amount of bromoform synthesised” value ([5]; 400 mM H2O2 added at start and again after 2 and 4 hours) is reported as 5 mg/mL, the “conversion to bromoform (yield based on acetylacetone)” value ([5]; after three hours, 400 mM H2O2 added at start and again after 2 and 4 hours) is reported as 97% and the “part of acetylacetone converted rapidly to bromoform” value ([5]; initial phase of the reaction) is reported as “Approximately half”. For the same compound, the “increase in bromoform production” value [6] was 10 fold and the bromoform production [4] was “increase in bromoform production”.
In the case of `CC1(C)CC(=O)CC(=O)C1` [5,5-dimethyl-1,3-cyclohexanedione], the “increase in bromoform concentration relative to acetone” value ([7]; listed as dimedone) is listed as 51 fold, the “increase in bromoform concentration relative to acetone” value ([7]; listed as dimidone) is listed as “up to 50 fold” and the “pKa (H2O solvent reference)” value [3] is listed as 5.2 (Brodwell, personal. The bromoform production [4] was “increase in bromoform production”.
In the case of `CCC(=O)CC(=O)CC` [3,5-heptanedione], the bromoform production [4] is reported as “increase in bromoform production”.
With `O=C(OC[C@H]1O[C@@H](OC(=O)c2cc(O)c(O)c(OC(=O)c3cc(O)c(O)c(O)c3)c2)[C@H](OC(=O)c2cc(O)c(O)c(OC(=O)c3cc(O)c(O)c(O)c3)c2)[C@@H](OC(=O)c2cc(O)c(O)c(OC(=O)c3cc(O)c(O)c(O)c3)c2)[C@@H]1OC(=O)c1cc(O)c(O)c(OC(=O)c2cc(O)c(O)c(O)c2)c1)c1cc(O)c(O)c(OC(=O)c2cc(O)c(O)c(O)c2)c1` [tannic acid] the “bromoform observed in culture” value [1] was “only observed when both inhibitors were added”.
